Source: patent US8435976B2, “4-substituted pyridin-3-yl-carboxamide compounds and methods of use” (F. Hoffmann-La Roche, priority 2009, dated 2013)

Columns and labels:
MM1.S cells = experiment: MM1.S cell proliferation, 72 hours (Cell Titer Glo); type: cell-based; conditions: Homo sapiens, 72 hours, read-out: Prolif MM1S ATP (EC50)
Procedure: (§1) BaF3 parental line was obtained from the DSMZ repository. BaF3 lines transfected with PIM1 or PIM2 were generated. Mouse IL-3 was purchased from R&D Systems. G418 was purchased from Clontech. Media for BaF3 parental line contained RPMI, 10% FBS, 2 mM L-Glutamine, 2 ng/mL mIL-3. Media for BaF3 PIM1 & 2 lines contained RPMI, 10% FBS, 2 mM L-Glutamine, […]. Media for MM1.S line contained RPMI, 10% FBS, 2 mM L-Glutamine.
(§2) BaF3 parental cells, BaF3 PIM1 cells, BaF3 PIM2 cells, and MM1.S cells were seeded at 2 k/well, 5 k/well, 5 k/well, and 10 k/well respectively, in a 384-well plate, at 45 μL/well. Test compound was added at 5 μL/well. BaF3 cells (parental and transfected) were incubated overnight, while MM1.S cells were incubated for 72 hours at 37° C., 5% CO2. Cell Titer Glo Reagent (Promega) was added at 50 μL/well, the plates were incubated for 30 minutes, and their luminescence read on an HT Analyst. IC50/EC50 values for the test compound were calculated.

BaF3 PIM1 cells = BaF3 PIM1 cells (Homo sapiens, UniProt P11309); experiment: BaF3 PIM1 cell proliferation (Cell Titer Glo); type: cell-based; conditions: incubated overnight; read-out: Prolif BaF3_PIM1 (IC50)
Procedure: as §1, §2

PIM3 = target: T1, PIM3 (Homo sapiens, UniProt Q86V86); experiment: Pim-3 kinase enzymatic assay (Caliper LC3000, FAM-Pimtide substrate); type: biochemical; conditions: 55 pM PIM3, 10 μM ATP, 90 minutes; read-out: PIM3 LC3K (Ki)
T1 construct: made in house
Procedure: (§3) Reaction Buffer contained 10 mM HEPES, pH 7.2, 10 mM MgCl2, 0.01% Tween 20, 2 mM DTT.
(§4) PIM reactions were carried out in a final volume of 10 μL per well in a 384-well plate. […] The separation of product and substrate was optimized by choosing voltages and pressure using Caliper's Optimizer software (Hopkinton, Mass.). The separation conditions used a downstream voltage of −500V, an upstream voltage of −2150V, and a screening pressure of −1.2 psi. […] Substrate conversion was calculated from the electrophoregram using HTS Well Analyzer software (Caliper Life Sciences, Hopkinton, Mass.). Ki values for the test compound were calculated.

PIM1 = target: T2, PIM1 (Homo sapiens, UniProt P11309); experiment: Pim-1 kinase enzymatic assay (Caliper LC3000, FAM-Pimtide substrate); type: biochemical; conditions: 20 pM PIM1, 10 μM ATP, 90 minutes; read-out: PIM1 LC3K (Ki)
T2 construct: made in house
Procedure: as §3, §4

BaF3 PIM2 cells = BaF3 PIM2 cells (Homo sapiens, UniProt Q9P1W9); experiment: BaF3 PIM2 cell proliferation (Cell Titer Glo); type: cell-based; conditions: incubated overnight; read-out: Prolif BaF3_PIM2 (IC50)
Procedure: as §1, §2

PIM2 = target: T3, PIM2 (Homo sapiens, UniProt Q9P1W9); experiment: Pim-2 kinase enzymatic assay (Caliper LC3000, FAM-Pimtide substrate); type: biochemical; conditions: 50 pM PIM2, 10 μM ATP, 90 minutes; read-out: PIM2 LC3K (Ki)
T3 construct: made in house
Procedure: as §3, §4

T2 sequence (P11309 whole entry): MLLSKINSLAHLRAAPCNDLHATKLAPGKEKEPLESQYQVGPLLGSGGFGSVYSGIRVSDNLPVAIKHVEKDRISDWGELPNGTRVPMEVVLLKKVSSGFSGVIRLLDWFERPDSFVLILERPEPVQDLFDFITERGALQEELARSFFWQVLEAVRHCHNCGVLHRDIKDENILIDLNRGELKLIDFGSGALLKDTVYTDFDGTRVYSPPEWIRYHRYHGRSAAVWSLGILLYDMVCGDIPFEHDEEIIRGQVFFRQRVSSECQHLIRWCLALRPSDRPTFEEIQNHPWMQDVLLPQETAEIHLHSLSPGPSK
BaF3 PIM1 cells, sequence (P11309 whole entry, change not shown): as the sequence (P11309 whole entry) above
BaF3 PIM2 cells, sequence (Q9P1W9 whole entry, change not shown): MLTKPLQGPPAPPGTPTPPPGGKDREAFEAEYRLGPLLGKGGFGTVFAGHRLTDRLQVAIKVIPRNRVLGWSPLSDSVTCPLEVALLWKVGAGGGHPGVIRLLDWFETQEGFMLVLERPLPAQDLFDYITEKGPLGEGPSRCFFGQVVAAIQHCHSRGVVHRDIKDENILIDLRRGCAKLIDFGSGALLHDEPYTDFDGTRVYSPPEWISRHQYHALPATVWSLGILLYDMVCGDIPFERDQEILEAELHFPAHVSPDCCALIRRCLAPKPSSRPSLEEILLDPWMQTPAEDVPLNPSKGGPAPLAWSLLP
T3 sequence (Q9P1W9 whole entry): as the sequence (Q9P1W9 whole entry, change not shown) above

Compound: Nc1sc(-c2c(F)cccc2F)nc1C(=O)Nc1cnccc1N1CCC[C@H](N)C1 (single isomer, unassigned) [Example 25]
- EC50 (MM1.S cells): 1500 nM
- GI50 (BaF3 PIM1 cells): 1500 nM

Compound: Nc1sc(-c2ccccc2F)nc1C(=O)Nc1cnccc1N1CCC[C@H](N)C1 [Example 1, (S)-5-amino-N-(4-(3-aminopiperidin-1-yl)pyridin-3-yl)-2-(2-fluorophenyl)thiazole-4-carboxamide]
- Ki (PIM3): 0.0156 nM
- Ki (PIM1): 0.0224 nM
- EC50 (MM1.S cells): 108 nM
- GI50 (BaF3 PIM2 cells): 1400 nM
- GI50 (BaF3 PIM1 cells): 33.2 nM
- Ki (PIM2): 0.0671 nM

Compound: Nc1sc(-c2ccccc2Cl)nc1C(=O)Nc1cnccc1N1CCC[C@H](N)C1 [Example 2, (S)-5-amino-N-(4-(3-aminopiperidin-1-yl)pyridin-3-yl)-2-(2-chlorophenyl)thiazole-4-carboxamide]
- Ki (PIM3): 0.0205 nM
- Ki (PIM1): 0.0355 nM
- EC50 (MM1.S cells): 218 nM
- GI50 (BaF3 PIM2 cells): 2000 nM
- GI50 (BaF3 PIM1 cells): 67.2 nM
- Ki (PIM2): 0.126 nM

Compound: Nc1sc(-c2cc(Br)ccc2F)nc1C(=O)Nc1cnccc1N1CCC[C@H](N)C1 [Example 4, (S)-5-amino-N-(4-(3-aminopiperidin-1-yl)pyridin-3-yl)-2-(5-bromo-2-fluorophenyl)thiazole-4-carboxamide]
- Ki (PIM3): 0.026 nM
- Ki (PIM1): 0.023 nM
- EC50 (MM1.S cells): 160 nM
- GI50 (BaF3 PIM2 cells): > 2500 nM
- GI50 (BaF3 PIM1 cells): 55.8 nM
- Ki (PIM2): 0.154 nM

Compound: Nc1sc(-c2cc(Br)ccc2Cl)nc1C(=O)Nc1cnccc1N1CCC[C@H](N)C1 [Example 5, (S)-5-amino-N-(4-(3-aminopiperidin-1-yl)pyridin-3-yl)-2-(5-bromo-2-chlorophenyl)thiazole-4-carboxamide]
- Ki (PIM3): 0.05 nM
- Ki (PIM1): 0.044 nM
- EC50 (MM1.S cells): 1500 nM
- GI50 (BaF3 PIM2 cells): 2800 nM
- GI50 (BaF3 PIM1 cells): 300 nM
- Ki (PIM2): 0.493 nM

Compound: Nc1sc(-c2cccc(Br)c2)nc1C(=O)Nc1cnccc1N1CCC[C@H](N)C1 [Example 6, (S)-5-amino-N-(4-(3-aminopiperidin-1-yl)pyridin-3-yl)-2-(3-bromophenyl)thiazole-4-carboxamide]
- Ki (PIM3): 0.032 nM
- Ki (PIM1): 0.063 nM
- EC50 (MM1.S cells): 595 nM
- GI50 (BaF3 PIM2 cells): 1400 nM
- GI50 (BaF3 PIM1 cells): 117 nM
- Ki (PIM2): 0.379 nM

Compound: Nc1sc(-c2ccccc2)nc1C(=O)Nc1cnccc1N1CCC[C@H](N)C1 [Example 7, (S)-5-amino-N-(4-(3-aminopiperidin-1-yl)pyridin-3-yl)-2-phenylthiazole-4-carboxamide]
- Ki (PIM3): 0.0215 nM
- Ki (PIM1): 0.091 nM
- EC50 (MM1.S cells): 141 nM
- GI50 (BaF3 PIM2 cells): 3100 nM
- GI50 (BaF3 PIM1 cells): 73 nM
- Ki (PIM2): 0.203 nM

Compound: Nc1scnc1C(=O)Nc1cnccc1N1CCC[C@H](N)C1 [Example 10, (S)-5-amino-N-(4-(3-aminopiperidin-1-yl)pyridin-3-yl)thiazole-4-carboxamide]
- Ki (PIM3): 24 nM
- Ki (PIM1): 36.7 nM
- EC50 (MM1.S cells): > 20000 nM
- GI50 (BaF3 PIM1 cells): 3600 nM
- Ki (PIM2): 51.2 nM

Compound: Nc1sc(-c2cccc(Cl)c2)nc1C(=O)Nc1cnccc1N1CCC[C@H](N)C1 [Example 13, (S)-5-amino-N-(4-(3-aminopiperidin-1-yl)pyridin-3-yl)-2-(3-chlorophenyl)thiazole-4-carboxamide]
- Ki (PIM3): 0.04 nM
- Ki (PIM1): 0.102 nM
- EC50 (MM1.S cells): > 20000 nM
- Ki (PIM2): 0.403 nM

Compound: Nc1sc(-c2ccccc2)nc1C(=O)Nc1cccnc1 [Example 14, 5-amino-2-phenyl-N-(pyridin-3-yl)thiazole-4-carboxamide]
- Ki (PIM3): 9.25 nM
- Ki (PIM1): 36.7 nM
- EC50 (MM1.S cells): > 20000 nM
- Ki (PIM2): 195 nM

Compound: Nc1sc(-c2cn3ccccc3n2)nc1C(=O)Nc1cnccc1N1CCC[C@H](N)C1 [Example 19, (S)-5-amino-N-(4-(3-aminopiperidin-1-yl)pyridin-3-yl)-2-(imidazo[1,2-a]pyridin-2-yl)thiazole-4-carboxamide]
- Ki (PIM1): 0.735 nM
- EC50 (MM1.S cells): 3200 nM
- GI50 (BaF3 PIM2 cells): > 20000 nM
- GI50 (BaF3 PIM1 cells): 581 nM
- Ki (PIM2): 3.55 nM

Compound: Nc1[nH]c(-c2ccccc2)nc1C(=O)Nc1cnccc1N1CCC[C@H](N)C1 [Example 20, (S)-5-amino-N-(4-(3-aminopiperidin-1-yl)pyridin-3-yl)-2-phenyl-1H-imidazole-4-carboxamide]
- Ki (PIM3): 496 nM
- Ki (PIM1): 1200 nM
- Ki (PIM2): 4900 nM

Compound: Nc1sc(-c2ccncc2)nc1C(=O)Nc1cnccc1N1CCC[C@H](N)C1 [Example 33, (S)-5-amino-N-(4-(3-aminopiperidin-1-yl)pyridin-3-yl)-2-(pyridin-4-yl)thiazole-4-carboxamide]
- Ki (PIM1): 0.6 nM
- EC50 (MM1.S cells): 3500 nM
- GI50 (BaF3 PIM2 cells): 13300 nM
- GI50 (BaF3 PIM1 cells): 410 nM
- Ki (PIM2): 2.51 nM

Compound: CC(C)c1nc(C(=O)Nc2cnccc2N2CCC[C@H](N)C2)c(N)s1 [Example 36, (S)-5-amino-N-(4-(3-aminopiperidin-1-yl)pyridin-3-yl)-2-isopropylthiazole-4-carboxamide]
- Ki (PIM3): 3.77 nM
- Ki (PIM1): 2.18 nM
- EC50 (MM1.S cells): 14000 nM
- GI50 (BaF3 PIM1 cells): 562 nM
- Ki (PIM2): 8.69 nM

Compound: Nc1sc(C2CCCCC2)nc1C(=O)Nc1cnccc1N1CCC[C@H](N)C1 [Example 37, (S)-5-amino-N-(4-(3-aminopiperidin-1-yl)pyridin-3-yl)-2-cyclohexylthiazole-4-carboxamide]
- Ki (PIM1): 1.14 nM
- EC50 (MM1.S cells): 2100 nM
- GI50 (BaF3 PIM1 cells): 2200 nM
- Ki (PIM2): 0.635 nM

Compound: Nc1sc(Cc2ccccc2)nc1C(=O)Nc1cnccc1N1CCC[C@H](N)C1 [Example 38, (S)-5-amino-N-(4-(3-aminopiperidin-1-yl)pyridin-3-yl)-2-benzylthiazole-4-carboxamide]
- Ki (PIM3): 12.7 nM
- Ki (PIM1): 3.73 nM
- EC50 (MM1.S cells): 11900 nM
- GI50 (BaF3 PIM1 cells): 3200 nM
- Ki (PIM2): 33.8 nM

Compound: N[C@H]1CCCN(c2ccncc2NC(=O)c2csc(-c3c(F)cccc3F)n2)C1 [Example 46, (S)-N-(4-(3-aminopiperidin-1-yl)pyridin-3-yl)-2-(2,6-difluorophenyl)thiazole-4-carboxamide]
- EC50 (MM1.S cells): 4800 nM

Compound: N[C@H]1CCCN(c2ccncc2NC(=O)c2csc(-c3ccccc3)n2)C1 [Example 48, (S)-N-(4-(3-aminopiperidin-1-yl)pyridin-3-yl)-2-phenylthiazole-4-carboxamide]
- Ki (PIM3): 0.487 nM
- Ki (PIM1): 1.33 nM
- EC50 (MM1.S cells): 8000 nM
- GI50 (BaF3 PIM1 cells): 1400 nM
- Ki (PIM2): 6.84 nM

Compound: Nc1sc(Cc2ccccc2)nc1C(=O)Nc1cnccc1N1CCC[C@H](NC(=O)C(F)(F)F)C1 [Example 49, (S)-5-amino-2-benzyl-N-(4-(3-(2,2,2-trifluoroacetamido)piperidin-1-yl)pyridin-3-yl)thiazole-4-carboxamide]
- Ki (PIM3): 91.2 nM
- Ki (PIM1): 29.7 nM
- EC50 (MM1.S cells): > 20000 nM
- GI50 (BaF3 PIM1 cells): 4000 nM
- Ki (PIM2): 259 nM

Compound: Nc1sc(-c2c(F)cccc2Cl)nc1C(=O)Nc1cnccc1N1CCC[C@H](N)C1 [Example 55, (S)-5-amino-N-(4-(3-aminopiperidin-1-yl)pyridin-3-yl)-2-(2-chloro-6-fluorophenyl)thiazole-4-carboxamide]
- Ki (PIM3): 0.028 nM
- Ki (PIM1): 0.032 nM
- EC50 (MM1.S cells): 158 nM
- Ki (PIM2): 0.12 nM

Compound: Nc1sc(C2CCNC2)nc1C(=O)Nc1cnccc1N1CCCC(N)C1 (stereo not drawn) [Example 64, 5-amino-N-(4-(3-aminopiperidin-1-yl)pyridin-3-yl)-2-(pyrrolidin-3-yl)thiazole-4-carboxamide]
- Ki (PIM3): 18 nM
- Ki (PIM1): 21.6 nM
- Ki (PIM2): 57.7 nM
